The text below walks through data of US20130143933A1, “TARGETED CORRECTION OF A GENETIC DEFECT IN CANCER THERAPY” (TRT Pharma Inc., priority 2011, published 2013).

Assay [1] has as its system Nrf2. Briefly: Immunoblotting of Nrf2 protein levels in A549 cells. Type of assay: cell-based. As to conditions: 48 hours, NR16 at 1 and 5 μM, compared to DMSO. The method, then:
This effect is mediated by a depletion of Nrf2, as confirmed by immunoblotting of Nrf2 protein levels in A549 cells, exposed to NR16 for 48 hours (FIG. 4).
For orientation: A western blot detects proteins with antibodies after separation by electrophoresis.

In assay [2] the test system is A2ARE-dependent reporter activity in A549 cells. The experiment in a line: ARE-dependent luciferase assay (A2ARE-luc reporter) in A549 cells. Type of assay: cell-based. As to conditions: NR16 at 1, 2.5 and 5 μM, NR13 at 2.5 μM, 24 hours, vs DMSO vehicle. The method, then: A549 cells are highly resistant to carboplatin and constitutively express high level of Nrf2 due to a mutation (G333C) in Keap1. Using ARE-dependent luciferase assays in A549 cells, which have constitutively high Nrf2 levels, the 18 compounds that are designed to target the CTD of Keap1 are tested. Included amongst these are NR16 and NR13. […] A2ARE-luc plasmid is transiently transfected into A549 cells. pRL-TK is included as internal control. Transfected cells are treated with DMSO vehicle, compound NR16 at 1, 2.5 and 5 μM as well as NR13 at 2.5 μM for 24 hours. **p<0.005, ***p<0.0005 when compared with DMSO vehicle.
A2ARE-luc and pRL-TK plasmids are transiently transfected into A549 cells. 6 hours after transfection, the transfected cells are exposed to DMSO vehicle control or compound at designated doses (5 μM) for 24 hours. ***p<0.0001 when compared with vehicle control.

In assay [3] the test system is MCF-7 cells. Briefly: Sensitization to paclitaxel, AlamarBlue cell survival, MCF-7. Type of assay: cell-based. As to conditions: MCF-7, PI3K mutation but no Keap1 mutation. Background: The colour change of resazurin is a common sign of viable cells or microbes.
Assay [4] concerns Nrf2. Briefly: Cellular Nrf2 level in H460 cells exposed to PF-04691502. It counts as cell-based. As to conditions: within 24 hours. The procedure: (§1) H460 cells, which bear both mutations in PI3K (E545K) and Keap1 (D286H) are exposed the cells to the dual and potent PI3K and mTOR inhibitor PF-04691502 currently in clinical development. Within 6 hours a dramatic drop in phospho-GSK at the critical Ser9 position is detected (FIG. 6A). Within 24 hours cellular Nrf2 is reduced (FIG. 6A). This is not observed even at a higher dose in A549 cells, which have wild type PI3K (FIG. 6B).

Assay [5] has as its system phospho-GSK at Ser9 position. The experiment in a line: phospho-GSK (Ser9) level in H460 cells exposed to PF-04691502. Type of assay: cell-based. As to conditions: H460 cells (PI3K E545K, Keap1 D286H); within 6 hours. The procedure:
as §1

Assay [6] deals with MCF7 cells. Briefly: Sensitization to cisplatin or paclitaxel in Keap1-depleted (siRNA) MCF7 cells, Alamar blue. As to conditions: MCF7 cells with Keap1 depletion (siRNA); PF-04691502 50nM for 24 h. Type of assay: cell-based. From the text:
To further test the specific cytotoxicity of PF-04691502, H460 cells are transfected with an siRNA specifically designed to deplete GSK-3R levels. Another siRNA that depletes Keap1 is used to test whether cells which have an activating mutation of PI3K, but WT Keap1, (e.g. MCF7), are sensitized by PF-04691502 when Keap1 is depleted. The pSuper platform (OligoEngine, Seattle, Wash.) is used to clone both siRNAs. Small inhibitory RNA sequences are designed using software available online at invitrogen.com. The siRNA, when dimerized form Bgl II and Hind III restriction sites. The oligos are cloned into the Bgl II/Hind III sites of the pSuper-puro vector.
These experiments confirm that the proposed mechanism of sensitization is GSK-dependent in Keap1 mutated or depleted (siRNA) cells. Cells are exposed to PF-04691502 50nM for 24 h, at which time media is replaced with fresh PF-04691502 and one of either cisplatin or paclitaxel is added at various doses. Cell survival is determined using Alamar blue. The shift in IC50 is determined.

For assay [7], the system named is A549 cells (wild type PI3K). The experiment in a line: phospho-GSK / Nrf2 level in A549 cells exposed to PF-04691502. It counts as cell-based. The conditions noted are these: even at a higher dose. The procedure:
as §1

In assay [8] the test system is A549. The experiment in a line: Sensitization to paclitaxel, AlamarBlue cell survival, A549. It counts as cell-based. As to conditions: A549, Keap1 mutation but wild type PI3K.
Assay [9] relates to pAkt (and pGSK-3β). The conditions noted are these: mouse xenograft models; oral, once daily, 10 mg/Kg; cited from earlier work.
Assay [10] has as its system H460 cells. Briefly: Sensitization to paclitaxel, AlamarBlue cell survival, H460. Type of assay: cell-based. As to conditions: PF at 10 and 50 nm, range of paclitaxel doses. The method, then:
PF-04691502 is tested to determine is it sensitizes H460 cells to paclitaxel in vitro, using two concentrations of PF (10 and 50 nm) and a range of paclitaxel doses. Cell survival is measured using AlamarBlue and fluorescence detection for viable (metabolically active) cells with 560Exnm/590EMnm filters.

A value given as a limit tells only on which side of the number the result lay.

For `O=C(CCCSCCCC(=O)N/N=C/c1ccccc1)N/N=C/c1ccccc1` [NR13], the “Nrf2 protein level (western blot)” value in assay [1] is “inactive”. Besides, the A2ARE-dependent reporter activity result in [2] is “inactive”.
Consider `O=C(CCCSCCCC(=O)N/N=C/c1ccccc1O)N/N=C/c1ccccc1O` [NR16], for which the “Nrf2 protein level (western blot)” value in assay [1] is recorded as “dose-dependent decrease”. Also, in assay [2], the A2ARE-dependent reporter activity result was “suppressed A2ARE-dependent reporter activity”.
Take `COc1ccc(-c2cc3c(C)nc(N)nc3n([C@H]3CC[C@H](OCCO)CC3)c2=O)cn1` [PF-04691502]: the “sensitization to paclitaxel (cell survival)” value was “no sensitization” in [3], “no sensitization” in [8] and “significant sensitization” in [10]. The “cellular Nrf2” value in [4] is listed as “reduced”. Besides, in assay [5], the “phospho-GSK at Ser9 position” value is “dramatic drop”. Besides, in assay [6], the “sensitization to cisplatin or paclitaxel (cell survival)” value is “sensitizing effect”. In addition, the “drop in phospho-GSK / reduction of cellular Nrf2” value in assay [7] is recorded as “not observed”. Moreover, the “depletion of phosphorylated forms of proteins in the PI3K pathway such as pAkt (and pGSK-3β)” value in assay [9] is given as “significant depletion”. Moreover, the “persistence of depletion of phosphorylated PI3K pathway proteins” value in assay [9] was no less than 8 h.
